Results reported in patent publication EP0498941A2, “Peptide skeletal muscle relaxants” (BOC Health Care, Inc., priority 1991, dated 1992).

Tested on: neuromuscular junction
Test: Rabbit paw twitch analysis (neuromuscular blocking activity)
Type: in vivo, Male New Zealand white rabbits
Description: In a large series of similar relaxants, the rabbit dose is typically 125% of that in mice. The mechanism of action was also confirmed in this test by observing train-of-four and tetanus fade, post-tetanic potentiation of single twitches and administration of the anticholinesterase drug neostigmine which reverses the relaxation. Reversibility, rapid onset and short duration are important factors to the anesthesiologist.
The following is a brief description of the methodologies used in rabbits to describe neuromuscular blocking activity of the subject compounds. A more detailed description of these methods is presented in "Microcomputer Use in Measuring Onset, Duration, and Recovery from Non-Depolarizing Skeletal Muscle Relaxants in Rabbits", P.D. Thut et al., Drug development Research 5:182, 1985.
Male New Zealand white rabbits weighing between 2.5 and 3.4 kg were anesthetized with pentobarbital (30 mg/kg) and placed on their backs upon a 40°C water filled temperature regulation pad. Following tracheostomy, the lungs were mechanically ventilated at 28 breaths per minute with room air, using an open system delivering 200 ml/stroke. This ventilation maintained pCO₂ at 38 […] and pO₂ at 85 mmHg. Direct arterial blood pressure was measured from the right common carotid artery. The test compounds were administered through a cannula placed in the marginal ear vein. Each foreleg was taped to a cushioned plate held in a femur clamp attached to the spinal board rack. The left centeral digit of each paw was connected to a force displacement transducer for measurement of muscle tension. Nerve stimulation was provided by pairs of pin electrodes placed on both sides of the ulnar nerve at the elbow of both forearms. The right ulnar nerve was stimulated at 1 Hz, 1 pps for .5 msec duration. The left ulnar nerve was similarly stimulated, every 15 seconds, with addition of interspersed trains-of-four and tetanizing stimuli. The parameters reported in Table II are: potency (ED90), which is the dose required to depress twitch tension to 10% of its control value; onset (T85%), which is the time from injection until 85% of the maximal drug effect is achieved; duration, which is the time from injection until the train-of-four has recovered to 75%; blood pressure (BP), which is the percentage change of pre-drug blood pressure; and heart rate (HR), which is the percentage change from pre-drug heart rate.

Structure (SMILES): COc1ccc(CC2c3cc(OC)c(OC)cc3CC[N+]2(C)CCC(=O)OCCCCCOC(=O)CC[N+]2(C)CCc3cc(OC)c(OC)cc3C2Cc2ccc(OC)c(OC)c2)cc1OC (stereo not shown) [atracurium]
- ED90 (Oryctolagus cuniculus, iv, potency: dose required to depress twitch tension to 10% of its control value, pentobarbital-anesthetized rabbits, marginal ear vein): 0.05 mg/kg
- T85% (onset: time from injection until 85% of the maximal drug effect is achieved, equi-efficacious dose): 126.90 s
- Duration (time from injection until the train-of-four has recovered to 75%, equi-efficacious dose): 14.30 min

Structure (SMILES): CC(=O)O[C@H]1C[C@@H]2CC[C@@H]3[C@H](CC[C@@]4(C)[C@H]3C[C@H]([N+]3(C)CCCCC3)[C@@H]4OC(C)=O)[C@@]2(C)C[C@@H]1N1CCCCC1 [vecuronium]
- BP (rabbit, in vivo): 1.10 % change
- Duration (rabbit, in vivo): 16.80 min
- ED9O (rabbit, in vivo): 0.02 mg/kg
- HR (rabbit, in vivo): - 9.90 % change
- T85% (rabbit, in vivo): 97.30 s

Structure (SMILES): CC(=O)O[C@H]1C[C@@H]2CC[C@@H]3[C@H](CC[C@@]4(C)[C@H]3C[C@H]([N+]3(C)CCCCC3)[C@@H]4OC(C)=O)[C@@]2(C)C[C@@H]1[N+]1(C)CCCCC1 [pancuronium]
- BP (rabbit, in vivo): 2.70 % change
- Duration (rabbit, in vivo): 35.50 min
- ED9O (rabbit, in vivo): 0.02 mg/kg
- HR (rabbit, in vivo): 0.00 % change
- T85% (rabbit, in vivo): 147.50 s
